Measured values taken from ChEMBL document CHEMBL1201862, “PubChem BioAssay data set” (2004).
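Tested at 5 concentrations; 48 h exposure; 96-well plates; endpoints linearly interpolated, else capped at highest concentration. GI50 marks 50% less growth.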 Activity calls are given as the source filed them. Rule as the data show it: active = GI50 up to about 1.1 µM and inactive = higher.

Experiments:
Experiment in all cases: inhibition of tumour cell growth, NCI panel, 48 h
NCI/ADR-RES = test system: NCI/ADR-RES
Malme-3M = test system: Malme-3M
EKVX = test system: EKVX
MDA-N = test system: MDA-N
CAKI-1 = test system: CAKI-1
NCI-H460 = test system: NCI-H460
COLO 205 = test system: COLO 205
OVCAR-4 = test system: OVCAR-4
UACC-257 = test system: UACC-257
SK-MEL-5 = test system: SK-MEL-5
K562 = test system: K562
CCRF-CEM = test system: CCRF-CEM
HT-29 = test system: HT-29
HCT-15 = test system: HCT-15
OVCAR-3 = test system: OVCAR-3
OVCAR-5 = test system: OVCAR-5
SK-MEL-28 = test system: SK-MEL-28
DU-145 = test system: DU-145
MDA-MB-435 = test system: MDA-MB-435
RXF 393 = test system: RXF 393
SNB-75 = test system: SNB-75
SK-OV-3 = test system: SK-OV-3
NCI-H522 = test system: NCI-H522
M14 = test system: M14
786-0 = test system: 786-0
SF-539 = test system: SF-539
LOX IMVI = test system: LOX IMVI
SF-268 = test system: SF-268
TK-10 = test system: TK-10
PC-3 = test system: PC-3
U-251 = test system: U-251
A498 = test system: A498
SN12C = test system: SN12C
IGROV-1 = test system: IGROV-1
ACHN = test system: ACHN
MCF7 = test system: MCF7
OVCAR-8 = test system: OVCAR-8
NCI-H23 = test system: NCI-H23
A549 = test system: A549
HOP-62 = test system: HOP-62
NCI-H226 = test system: NCI-H226
SF-295 = test system: SF-295
T47D = test system: T47D
BT-549 = test system: BT-549
HCT-116 = test system: HCT-116
KM12 = test system: KM12
MOLT-4 = test system: MOLT-4
UO-31 = test system: UO-31
SK-MEL-2 = test system: SK-MEL-2
SNB-19 = test system: SNB-19
UACC-62 = test system: UACC-62
Hs-578T = test system: Hs-578T
SW-620 = test system: SW-620
RPMI-8226 = test system: RPMI-8226
SR = test system: SR
HCC 2998 = test system: HCC 2998
HL-60 = test system: HL-60
HOP-92 = test system: HOP-92

Measured: GI50

Cc1n2nc(N)sc2n[n+]1Cc1ccccc1
> 100 µM: HCT-15
inactive: NCI/ADR-RES > 100 µM | Malme-3M > 100 µM | EKVX 97.5 µM | MDA-N > 100 µM | CAKI-1 > 100 µM | NCI-H460 > 10 µM | COLO 205 21.4 µM | OVCAR-4 > 100 µM | UACC-257 > 100 µM | SK-MEL-5 49.5 µM | K562 47.5 µM | CCRF-CEM > 100 µM | HT-29 > 100 µM | OVCAR-3 89.9 µM | OVCAR-5 > 100 µM | SK-MEL-28 > 100 µM | DU-145 > 100 µM | MDA-MB-435 > 100 µM | RXF 393 > 100 µM | SNB-75 > 100 µM | SK-OV-3 > 100 µM | NCI-H522 > 100 µM | M14 > 100 µM | 786-0 > 100 µM | SF-539 > 100 µM | LOX IMVI > 100 µM | SF-268 48.8 µM | TK-10 > 100 µM | PC-3 > 100 µM | U-251 77.3 µM | A498 > 100 µM | SN12C > 100 µM | IGROV-1 58.9 µM | ACHN > 100 µM | MCF7 > 100 µM | OVCAR-8 > 100 µM | NCI-H23 > 100 µM | A549 70.6 µM | HOP-62 72.6 µM | NCI-H226 > 100 µM | SF-295 > 100 µM | T47D 38.4 µM | BT-549 74.6 µM | HCT-116 > 100 µM | KM12 > 100 µM | MOLT-4 > 100 µM | UO-31 > 100 µM | SK-MEL-2 > 100 µM | SNB-19 > 100 µM | UACC-62 47.4 µM | Hs-578T > 100 µM | SW-620 > 100 µM | RPMI-8226 > 100 µM

COc1cc(S(=O)(=O)Nc2ccc(-c3csc(N4C(=O)C(Cl)C4c4ccccc4O)n3)cc2)ccc1Cl (stereo not given)
active: A498 0.454 µM | Hs-578T 0.748 µM
> 100 µM: HCT-15
inactive: NCI/ADR-RES > 100 µM | SR 4.82 µM | HCC 2998 15.1 µM | Malme-3M 24.1 µM | EKVX 15.4 µM | HL-60 21.8 µM | MDA-N 27.5 µM | CAKI-1 > 100 µM | NCI-H460 47.5 µM | COLO 205 23.9 µM | OVCAR-4 26.4 µM | UACC-257 29.1 µM | SK-MEL-5 37.1 µM | K562 31 µM | CCRF-CEM 2.73 µM | HT-29 36.8 µM | OVCAR-3 > 100 µM | OVCAR-5 47.8 µM | SK-MEL-28 38.1 µM | HOP-92 28 µM | DU-145 14.3 µM | MDA-MB-435 31.4 µM | RXF 393 19.9 µM | SNB-75 62.7 µM | SK-OV-3 > 100 µM | NCI-H522 1.51 µM | M14 50.9 µM | 786-0 35.1 µM | SF-539 30.5 µM | LOX IMVI 1.49 µM | SF-268 25.8 µM | PC-3 42.3 µM | SN12C 33.1 µM | IGROV-1 11.9 µM | ACHN 76.7 µM | MCF7 21 µM | OVCAR-8 53.6 µM | NCI-H23 23.6 µM | A549 > 100 µM | HOP-62 > 100 µM | NCI-H226 37.8 µM | SF-295 > 100 µM | T47D 13.1 µM | BT-549 29 µM | HCT-116 30.3 µM | KM12 33 µM | MOLT-4 9.59 µM | UO-31 31.9 µM | SK-MEL-2 37.8 µM | SNB-19 > 100 µM | UACC-62 17 µM | SW-620 32.3 µM | RPMI-8226 23.2 µM
